Reference: patent US11655239B2 (SHANGHAI INSTITUTE OF MATERIAL MEDICA, CHINESE ACADEMY OF …, priority 2019, dated 2023)

Experiments:
Type in all cases: biochemical
IGF-1R = IGF-1R (Homo sapiens (Human), UniProt P08069); test: Enzyme selectivity test (ELISA), IGF-1R
Method: (§1) 1) Enzyme reaction substrate Poly(Glu, Tyr) 4:1 was diluted to 20 μg/mL with potassium-free PBS (10 mM sodium phosphate buffer, 150 mM NaCl, pH 7.2-7.4), and the microtiter plate was coated with 125 μL/well and placed at 37° C. for 12-16 hours of reaction. The liquid in the well was discard. The plate was washed three times with T-PBS (potassium-free PBS containing 0.1% Tween-20, 200 μL/well), 5 minutes each time. The ELISA plate was dried in an oven at 37° C. for 1 to 2 hours.
(§2) 2) Reaction buffer (50 mM HEPES pH 7.4, 50 mM MgCl2, 0.5 mM MnCl2, 0.2 mM Na3VO4, 1 mM DTT) diluted ATP solution (49 μL) was added to each well, 1 μL of the compound to be tested was added to each well, and then 50 μL of DDR2 kinase domain recombinant protein diluted in the reaction buffer was added to start the reaction. Two control wells without ATP were set in each experiment. The plate placed on a shaker (100 rpm) at 37° C. for 1 hour of reaction. The liquid in the well was discarded and the plate was washed three times with T-PBS.
(§3) 3) Antibody PY99 dilution solution (the antibody was diluted 1:500 with T-PBS containing BSA 5 mg/mL) was added at 100 μL/well, and shaken on a shaker at 37° C. for 0.5 hour of reaction. The liquid in the well was discarded and the plate was washed three times with T-PBS.
(§4) 4) Horseradish peroxidase labeled goat anti-murine secondary antibody dilution solution (the antibody is diluted 1:2000 with T-PBS containing BSA 5 mg/ml) was added at 100 μL/well, and shaken on a shaker at 37° C. for 0.5 hour of reaction. The liquid in the well was discarded and the plate was washed three times with T-PBS.
(§5) 5) 2 mg/ml of OPD color developing solution [diluted with 0.1 M citric acid-sodium citrate buffer (pH=5.4) containing 0.03% H2O2] was added at 100 μL/well and reacted for 1 to 10 minutes at 25° C. in the dark.
(§6) 6) 2M H2SO4 was added at 50 μL/well to stop the reaction, and a tunable wavelength microplate reader VERSAmax was used for reading at a wavelength of 490 nm.
(§7) The IC50 value was obtained by four-parameter regression using the software that came with the microplate reader. […]

EPH-A2 = EPH-A2 (Homo sapiens (Human), UniProt P29317); test: Enzyme selectivity test (ELISA), EPH-A2
Method: as §1, §2, §3, §4, §5, §6, §7

FGFR-4 = FGFR-4 (Homo sapiens (Human), UniProt P22455); test: Enzyme selectivity test (ELISA), FGFR-4
Method: as §1
as §2, with “T-PBS. […]” for “T-PBS.”
as §6, §7

ALK = ALK (Homo sapiens (Human), UniProt Q9UM73); test: Enzyme selectivity test (ELISA), ALK
Method: as §1, §2, §3, §4, §5, §6, §7

FGFR-1 = FGFR-1 (Homo sapiens (Human), UniProt P11362); test: Enzyme selectivity test (ELISA), FGFR-1
Method: as §1, §2, §3, §4, §5, §6, §7

FGFR-2 = FGFR-2 (Homo sapiens (Human), UniProt P21802); test: Enzyme selectivity test (ELISA), FGFR-2
Method: as §1
as §2, with “T-PBS. […]” for “T-PBS.”
as §6, §7

Flt-3 = Flt-3 (Homo sapiens (Human), UniProt P36888); test: Enzyme selectivity test (ELISA), Flt-3
Method: as §1, §2, §3, §4, §5, §6, §7

RET = RET (Homo sapiens (Human), UniProt P07949); test: Enzyme selectivity test (ELISA), RET
Method: as §1, §2, §3, §4, §5, §6, §7

ErbB2 = ErbB2 (Homo sapiens (Human), UniProt P04626); test: Enzyme selectivity test (ELISA), ErbB2
Method: as §1, §2, §3, §4, §5, §6, §7

C-Kit = C-Kit (Homo sapiens (Human), UniProt P10721); test: Enzyme selectivity test (ELISA), C-Kit
Method: as §1, §2, §3, §4, §5, §6, §7

DDR2 = DDR2 (Homo sapiens (Human), UniProt Q16832); test: DDR2 enzyme activity test (ELISA); settings: read-out: DDR2 IC50
Method: The optical rotation and the inhibitory activity against DDR2 enzyme of the compounds S11-A and S11-B obtained by the resolution in Example 12, and the chirally synthesized compounds S11-A′ and S11-B′ in Example 13 were tested (referred to the operation in Effect example 1), and the results are shown in Table 3 below:
Detection method: Enzyme-linked immunosorbent assay (ELISA)
Test receptor tyrosine kinase: DDR2
The kinase used in the experiment was obtained by our laboratory using the insect baculovirus expression system to express and purify the recombinant protein containing the protein kinase region; polyglutamic acid-tyrosine peptide segment [Poly(Glu, Tyr) 4:1] and sodium vanadate were purchased from Sigma; the anti-phosphorylated monoclonal antibody PY99 was purchased from Santa Cruz; horseradish peroxidase labeled goat anti-murine secondary antibody was purchased from Calbiochem; ATP and OPD were purchased from Sangon Biotech (Shanghai) Co., Ltd.; the remaining reagents were purchased from Sinopharm Chemical Reagent Co., Ltd. The reaction ELISA plate (#2592) was purchased from Corning. The full-wavelength microplate reader for experiment reading was a product of Molecular Device, model: SpectraMax 190; the experimental water was distilled water produced by Sinopharm Group.
The compound was centrifuged at 12,000 g for 5 min, and DMSO was added to prepare a 10^-2M stock solution, which was vortexed evenly, then sonicated for 10 min and stored at −40° C. for later use. During the test, the compound was diluted with DMSO from the stock solution to 100 times the test concentration (the DMSO concentration in the system was 1%).
as §1, §2, §3, §4, §5, §6
The IC50 value was obtained by four-parameter regression using the software that came with the microplate reader.

PDGFR-β = PDGFR-β (Homo sapiens (Human), UniProt P09619); test: Enzyme selectivity test (ELISA), PDGFR-β
Method: as §1, §2, §3, §4, §5, §6, §7

ErbB4 = ErbB4 (Homo sapiens (Human), UniProt Q15303); test: Enzyme selectivity test (ELISA), ErbB4
Method: as §1, §2, §3, §4, §5, §6, §7

Abl = Abl (Homo sapiens (Human), UniProt P00519); test: Enzyme selectivity test (ELISA), Abl
Method: as §1, §2, §3, §4, §5, §6, §7

P38 MAPK = test: Enzyme selectivity test (ELISA), P38 MAPK
Method: as §1
as §2, with “T-PBS. […]” for “T-PBS.”
as §6, §7

VEGFR-1 = VEGFR-1 (Homo sapiens (Human), UniProt P17948); test: Enzyme selectivity test (ELISA), VEGFR-1
Method: as §1, §2, §3, §4, §5, §6, §7

Met = Met (Homo sapiens (Human), UniProt P08581); test: Enzyme selectivity test (ELISA), Met
Method: as §1, §2, §3, §4, §5, §6, §7

Src = Src (Homo sapiens (Human), UniProt P12931); test: Enzyme selectivity test (ELISA), Src
Method: as §1, §2, §3, §4, §5, §6, §7

EGFR = EGFR (Homo sapiens (Human), UniProt P00533); test: Enzyme selectivity test (ELISA), EGFR
Method: as §1, §2, §3, §4, §5, §6, §7

FGFR-3 = FGFR-3 (Homo sapiens (Human), UniProt P22607); test: Enzyme selectivity test (ELISA), FGFR-3
Method: as §1
as §2, with “T-PBS. […]” for “T-PBS.”
as §6, §7

AXL = AXL (Homo sapiens (Human), UniProt P30530); test: Enzyme selectivity test (ELISA), AXL
Method: as §1, §2, §3, §4, §5, §6, §7

kinases = test: Enzyme selectivity test, kinase panel overall; settings: kinase panel of Table 5
Description: Except that the enzyme was different, other test methods and conditions were the same as the DDR2 enzyme activity test method in Effect example 1.

KDR = KDR (Homo sapiens (Human), UniProt P35968); test: Enzyme selectivity test (ELISA), KDR
Method: as §1, §2, §3, §4, §5, §6, §7

PDGFR-α = PDGFR-α (Homo sapiens (Human), UniProt P16234); test: Enzyme selectivity test (ELISA), PDGFR-α
Method: as §1, §2, §3, §4, §5, §6, §7

ErbB4, sequence (Q15303 26-1308, species assumed): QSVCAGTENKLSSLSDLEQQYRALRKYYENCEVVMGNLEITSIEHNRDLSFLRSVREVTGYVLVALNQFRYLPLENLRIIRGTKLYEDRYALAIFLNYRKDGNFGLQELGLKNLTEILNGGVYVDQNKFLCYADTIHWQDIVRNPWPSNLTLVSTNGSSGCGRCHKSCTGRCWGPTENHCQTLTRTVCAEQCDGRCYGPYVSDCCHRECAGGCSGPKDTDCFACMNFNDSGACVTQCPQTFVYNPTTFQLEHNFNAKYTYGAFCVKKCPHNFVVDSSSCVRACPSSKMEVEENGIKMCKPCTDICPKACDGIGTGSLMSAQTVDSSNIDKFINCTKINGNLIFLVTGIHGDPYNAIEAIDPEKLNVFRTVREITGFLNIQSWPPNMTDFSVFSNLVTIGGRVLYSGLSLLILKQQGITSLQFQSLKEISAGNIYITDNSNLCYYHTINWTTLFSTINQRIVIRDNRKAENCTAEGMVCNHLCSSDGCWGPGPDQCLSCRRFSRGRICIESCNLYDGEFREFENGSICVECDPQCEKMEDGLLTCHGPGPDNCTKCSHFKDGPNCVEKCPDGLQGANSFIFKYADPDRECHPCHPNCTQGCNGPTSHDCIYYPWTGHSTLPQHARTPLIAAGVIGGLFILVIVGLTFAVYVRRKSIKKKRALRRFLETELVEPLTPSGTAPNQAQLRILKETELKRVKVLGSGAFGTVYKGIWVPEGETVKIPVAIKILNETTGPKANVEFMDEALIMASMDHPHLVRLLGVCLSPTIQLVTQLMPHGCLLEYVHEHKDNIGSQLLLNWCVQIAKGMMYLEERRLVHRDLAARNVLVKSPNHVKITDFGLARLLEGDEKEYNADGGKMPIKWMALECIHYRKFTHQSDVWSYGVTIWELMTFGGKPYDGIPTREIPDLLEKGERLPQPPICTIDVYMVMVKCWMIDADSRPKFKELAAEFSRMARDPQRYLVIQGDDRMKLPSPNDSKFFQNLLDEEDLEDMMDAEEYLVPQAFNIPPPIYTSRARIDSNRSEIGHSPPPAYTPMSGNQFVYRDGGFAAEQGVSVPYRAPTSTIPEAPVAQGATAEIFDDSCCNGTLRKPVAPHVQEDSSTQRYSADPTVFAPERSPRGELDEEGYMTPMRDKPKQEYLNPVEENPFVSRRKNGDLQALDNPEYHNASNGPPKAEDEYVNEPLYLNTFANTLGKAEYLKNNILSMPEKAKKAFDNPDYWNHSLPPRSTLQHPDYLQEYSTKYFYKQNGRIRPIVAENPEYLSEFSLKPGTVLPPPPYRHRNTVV
PDGFR-α, sequence (P16234 24-1089, species assumed): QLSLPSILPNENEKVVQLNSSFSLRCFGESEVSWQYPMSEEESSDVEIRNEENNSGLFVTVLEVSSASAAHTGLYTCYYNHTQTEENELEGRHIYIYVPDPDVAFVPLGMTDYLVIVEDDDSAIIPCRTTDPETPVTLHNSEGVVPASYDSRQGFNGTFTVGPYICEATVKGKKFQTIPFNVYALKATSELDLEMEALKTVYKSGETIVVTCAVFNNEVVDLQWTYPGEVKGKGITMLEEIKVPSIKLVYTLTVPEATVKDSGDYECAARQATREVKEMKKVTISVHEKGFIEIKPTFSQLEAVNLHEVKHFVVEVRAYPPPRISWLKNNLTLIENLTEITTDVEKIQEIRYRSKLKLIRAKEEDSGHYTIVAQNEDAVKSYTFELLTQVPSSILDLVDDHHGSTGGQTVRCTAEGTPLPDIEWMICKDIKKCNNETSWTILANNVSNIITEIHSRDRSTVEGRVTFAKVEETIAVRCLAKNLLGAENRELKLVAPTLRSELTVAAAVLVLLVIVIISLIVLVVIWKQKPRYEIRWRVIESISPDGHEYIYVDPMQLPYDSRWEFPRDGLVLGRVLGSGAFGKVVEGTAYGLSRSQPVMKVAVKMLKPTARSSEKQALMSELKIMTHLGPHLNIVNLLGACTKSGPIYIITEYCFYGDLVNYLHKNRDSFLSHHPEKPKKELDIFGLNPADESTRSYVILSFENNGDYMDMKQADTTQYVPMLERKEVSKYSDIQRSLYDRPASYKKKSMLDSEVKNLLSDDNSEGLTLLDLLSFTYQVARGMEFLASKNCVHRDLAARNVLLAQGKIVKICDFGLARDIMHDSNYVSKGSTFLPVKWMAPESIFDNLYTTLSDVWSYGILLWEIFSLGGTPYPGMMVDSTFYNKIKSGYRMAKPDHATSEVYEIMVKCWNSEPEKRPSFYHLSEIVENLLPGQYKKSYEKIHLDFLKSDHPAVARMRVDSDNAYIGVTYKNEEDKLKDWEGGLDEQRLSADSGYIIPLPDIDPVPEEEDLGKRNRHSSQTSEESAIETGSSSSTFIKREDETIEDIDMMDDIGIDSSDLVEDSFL
DDR2, sequence (Q16832 563-849): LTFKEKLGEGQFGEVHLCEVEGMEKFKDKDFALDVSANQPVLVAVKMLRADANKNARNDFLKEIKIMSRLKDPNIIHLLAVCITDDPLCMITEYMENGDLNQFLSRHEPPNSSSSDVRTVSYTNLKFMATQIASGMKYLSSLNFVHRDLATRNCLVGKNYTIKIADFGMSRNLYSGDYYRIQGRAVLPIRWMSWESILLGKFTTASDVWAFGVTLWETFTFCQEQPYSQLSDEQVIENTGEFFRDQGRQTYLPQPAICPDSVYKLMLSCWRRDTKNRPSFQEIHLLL
FGFR-3, sequence (P22607 23-806, species assumed): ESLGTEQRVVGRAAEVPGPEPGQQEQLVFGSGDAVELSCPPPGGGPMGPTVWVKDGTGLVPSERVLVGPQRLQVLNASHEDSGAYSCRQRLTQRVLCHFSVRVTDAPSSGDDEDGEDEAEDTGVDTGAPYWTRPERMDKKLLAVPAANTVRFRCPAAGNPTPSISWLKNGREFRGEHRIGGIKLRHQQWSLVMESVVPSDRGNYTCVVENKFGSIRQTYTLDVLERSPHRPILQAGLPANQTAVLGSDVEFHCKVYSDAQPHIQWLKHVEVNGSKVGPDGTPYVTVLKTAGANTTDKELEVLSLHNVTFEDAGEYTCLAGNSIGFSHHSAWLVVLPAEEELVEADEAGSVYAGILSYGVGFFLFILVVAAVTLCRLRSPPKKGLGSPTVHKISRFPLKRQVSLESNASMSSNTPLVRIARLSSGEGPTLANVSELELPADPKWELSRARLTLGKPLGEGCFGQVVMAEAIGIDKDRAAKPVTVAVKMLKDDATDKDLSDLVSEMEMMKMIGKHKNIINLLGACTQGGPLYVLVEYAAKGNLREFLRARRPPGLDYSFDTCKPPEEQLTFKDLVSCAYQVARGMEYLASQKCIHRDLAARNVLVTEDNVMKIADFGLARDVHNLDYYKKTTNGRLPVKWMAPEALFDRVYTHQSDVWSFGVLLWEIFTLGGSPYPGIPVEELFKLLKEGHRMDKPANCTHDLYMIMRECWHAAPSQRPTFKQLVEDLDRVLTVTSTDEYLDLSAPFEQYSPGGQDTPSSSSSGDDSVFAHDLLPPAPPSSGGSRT
FGFR-4, sequence (P22455 22-802, species assumed): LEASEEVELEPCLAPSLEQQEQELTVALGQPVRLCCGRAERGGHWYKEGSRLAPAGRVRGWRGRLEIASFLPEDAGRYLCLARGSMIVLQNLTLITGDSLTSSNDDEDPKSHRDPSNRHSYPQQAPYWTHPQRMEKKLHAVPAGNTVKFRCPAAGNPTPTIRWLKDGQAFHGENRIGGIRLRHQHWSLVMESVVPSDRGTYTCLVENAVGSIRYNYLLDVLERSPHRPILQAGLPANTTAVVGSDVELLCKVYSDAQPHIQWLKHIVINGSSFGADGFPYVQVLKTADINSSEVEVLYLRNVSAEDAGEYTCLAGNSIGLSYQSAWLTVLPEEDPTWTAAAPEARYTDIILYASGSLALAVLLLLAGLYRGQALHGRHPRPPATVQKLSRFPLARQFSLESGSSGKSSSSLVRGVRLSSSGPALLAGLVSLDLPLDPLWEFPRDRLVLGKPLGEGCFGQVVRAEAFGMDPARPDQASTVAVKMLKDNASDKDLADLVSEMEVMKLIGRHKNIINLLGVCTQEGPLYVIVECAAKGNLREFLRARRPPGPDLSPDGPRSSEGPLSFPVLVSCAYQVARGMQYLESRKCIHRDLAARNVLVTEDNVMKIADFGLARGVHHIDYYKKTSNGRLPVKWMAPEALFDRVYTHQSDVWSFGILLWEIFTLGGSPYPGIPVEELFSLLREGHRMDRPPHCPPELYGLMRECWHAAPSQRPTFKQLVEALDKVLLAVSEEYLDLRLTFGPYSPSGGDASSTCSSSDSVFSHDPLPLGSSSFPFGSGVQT
Src, sequence (P12931 whole entry, looked up, species assumed): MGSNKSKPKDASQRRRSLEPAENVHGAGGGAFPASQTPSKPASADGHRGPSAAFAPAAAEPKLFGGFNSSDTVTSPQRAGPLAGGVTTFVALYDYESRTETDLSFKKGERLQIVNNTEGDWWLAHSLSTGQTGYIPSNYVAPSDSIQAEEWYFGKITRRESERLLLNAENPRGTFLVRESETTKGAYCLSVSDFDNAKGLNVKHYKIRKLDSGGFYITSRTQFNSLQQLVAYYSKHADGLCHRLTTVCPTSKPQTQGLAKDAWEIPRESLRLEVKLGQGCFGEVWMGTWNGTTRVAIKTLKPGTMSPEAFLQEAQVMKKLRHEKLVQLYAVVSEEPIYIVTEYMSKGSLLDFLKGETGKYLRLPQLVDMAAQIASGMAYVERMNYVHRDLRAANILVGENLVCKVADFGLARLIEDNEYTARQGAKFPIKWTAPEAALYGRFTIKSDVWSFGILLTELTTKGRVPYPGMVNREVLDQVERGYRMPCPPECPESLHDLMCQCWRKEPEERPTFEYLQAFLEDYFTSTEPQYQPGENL

CCC(NC(=O)c1ccc(C2CC2)c(-c2ccc3nc(Nc4cnn(C5CC5)c4)ncc3c2)c1)c1cccc(C(F)(F)F)c1 (stereo not drawn) [Compound S18]
IC50 (IGF-1R): > 1000 nM | IC50 (EPH-A2): > 1000 nM | IC50 (FGFR-4): > 1000 nM | IC50 (ALK): > 1000 nM | IC50 (FGFR-1): > 1000 nM | IC50 (FGFR-2): > 1000 nM | IC50 (Flt-3): > 1000 nM | IC50 (RET): > 1000 nM | IC50 (ErbB2): > 1000 nM | IC50 (C-Kit): > 1000 nM | IC50 (DDR2): 3.7 ± 0.2 nM | IC50 (PDGFR-β): > 1000 nM | IC50 (ErbB4): > 1000 nM | IC50 (Abl): > 1000 nM | IC50 (P38 MAPK): > 1000 nM | IC50 (VEGFR-1): > 1000 nM | IC50 (Met): > 1000 nM | IC50 (Src): > 1000 nM | IC50 (EGFR): > 1000 nM | IC50 (FGFR-3): > 1000 nM | IC50 (AXL): > 1000 nM | selectivity for kinases (kinases): good selectivity | IC50 (KDR): > 1000 nM | IC50 (PDGFR-α): > 1000 nM
